This experiment deals with PKB Ser473 phosphorylation in Rat1-myr-HA-p110 alpha cells. Put plainly: Reverse protein array, PKB Ser473 phosphorylation in Rat1-myr-HA-p110 alpha cells. Format: cell-based. Conditions: Rattus norvegicus, 0.5 h, 30 minutes compound incubation, read-out: p-PKB/IC50_alpha.

Take `COc1ncccc1-n1c(=O)n(C)c2cnc3ccc(-c4cnc5[nH]ccc5c4)cc3c21` [Example 1.2, 1-(2-Methoxy-pyridin-3-yl)-3-methyl-8-(1H-pyrrolo[2,3-b]pyridin-5-yl)-1,3-dihydro-imidazo[4,5-c]quinolin-2-one]: the IC50 is 5.7 nM.
For `COc1ncccc1-n1c(=O)n(C)c2cnc3ccc(-c4ccc(C(N)=O)cc4)cc3c21` [Example 1.6, 4-[1-(2-Methoxy-pyridin-3-yl)-3-methyl-2-oxo-2,3-dihydro-1H-imidazo[4,5-c]quinolin-8-yl]-benzamide], the IC50 is 6.56 nM.
The value for `Cc1ncccc1-n1c(=O)n(C)c2cnc3ccc(-c4ccc(C(N)=O)cc4)cc3c21` [Example 2.3, 4-[3-Methyl-1-(2-methyl-pyridin-3-yl)-2-oxo-2,3-dihydro-1H-imidazo[4,5-c]quinolin-8-yl]-benzamide] was 21 nM.
`CCOc1ncc(-c2ccc3ncc4c(c3c2)n(-c2cccnc2C)c(=O)n4C)cn1` [Example 2.5, 8-(2-Ethoxy-pyrimidin-5-yl)-3-methyl-1-(2-methyl-pyridin-3-yl)-1,3-dihydro-imidazo[4,5-c]quinolin-2-one]: the IC50 was 49 nM.
As to `Cc1ncccc1-n1c(=O)n(C)c2cnc3ccc(-c4ccc(CO)nc4)cc3c21` [Example 2.6, 8-(6-Hydroxymethyl-pyridin-3-yl)-3-methyl-1-(2-methyl-pyridin-3-yl)-1,3-dihydro-imidazo[4,5-c]quinolin-2-one], the IC50 is 38.6 nM.
On to `Cc1ncccc1-n1c(=O)n(C)c2cnc3ccc(-c4ccc(N)nc4)cc3c21` [Example 2.7, 8-(6-Amino-pyridin-3-yl)-3-methyl-1-(2-methyl-pyridin-3-yl)-1,3-dihydro-imidazo[4,5-c]quinolin-2-one], for which the IC50 came out at 11.6 nM.
With `COc1ccc(-c2ccc3ncc4c(c3c2)n(-c2cccnc2C)c(=O)n4C)cc1OC` [Example 2.9, 8-(3,4-Dimethoxy-phenyl)-3-methyl-1-(2-methyl-pyridin-3-yl)-1,3-dihydro-imidazo[4,5-c]quinolin-2-one], the IC50 came to 8.4 nM.
The value for `Cc1ncccc1-n1c(=O)n(C)c2cnc3ccc(-c4ccc(OCCCN(C)C)nc4)cc3c21` [Example 2.10, 8-[6-(3-Dimethylamino-propoxy)-pyridin-3-yl]-3-methyl-1-(2-methyl-pyridin-3-yl)-1,3-dihydro-imidazo[4,5-c]quinolin-2-one] was 114 nM; that for `Cc1ncccc1-n1c(=O)n(C)c2cnc3ccc(-c4cnc(N)c(C(F)(F)F)c4)cc3c21` [Example 2.11, 8-(6-Amino-5-trifluoromethyl-pyridin-3-yl)-3-methyl-1-(2-methyl-pyridin-3-yl)-1,3-dihydro-imidazo[4,5-c]quinolin-2-one] was 7.02 nM; that for `COc1ccc(-c2ccc3ncc4c(c3c2)n(-c2cccnc2C)c(=O)n4C)cn1` [Example 2.12, 8-(6-Methoxy-pyridin-3-yl)-3-methyl-1-(2-methyl-pyridin-3-yl)-1,3-dihydro-imidazo[4,5-c]quinolin-2-one] was 29.8 nM.
For `CNc1ccc(-c2ccc3ncc4c(c3c2)n(-c2cccnc2C)c(=O)n4C)cn1` [Example 2.13, 3-Methyl-8-(6-methylamino-pyridin-3-yl)-1-(2-methyl-pyridin-3-yl)-1,3-dihydro-imidazo[4,5-c]quinolin-2-one] the value was 11.5 nM; for `Cc1ncccc1-n1c(=O)n(C)c2cnc3ccc(-c4cnc(N(C)C)nc4)cc3c21` [Example 2.15, 8-(2-Dimethylamino-pyrimidin-5-yl)-3-methyl-1-(2-methyl-pyridin-3-yl)-1,3-dihydro-imidazo[4,5-c]quinolin-2-one], 72.4 nM.
In the case of `Cc1ncccc1-n1c(=O)n(C)c2cnc3ccc(-c4cncc(NC(C)C)c4)cc3c21` [Example 2.24, 8-(5-Isopropylamino-pyridin-3-yl)-3-methyl-1-(2-methyl-pyridin-3-yl)-1,3-dihydro-imidazo[4,5-c]quinolin-2-one], the IC50 was 22.2 nM.
For `Cc1ncccc1-n1c(=O)n(C)c2cnc3ccc(-c4cncc(N)c4)cc3c21` [Example 2.25, 8-(5-Amino-pyridin-3-yl)-3-methyl-1-(2-methyl-pyridin-3-yl)-1,3-dihydro-imidazo[4,5-c]quinolin-2-one] the value was 36.3 nM; for `CNc1cncc(-c2ccc3ncc4c(c3c2)n(-c2cccnc2C)c(=O)n4C)c1` [Example 2.26, 3-Methyl-8-(5-methylamino-pyridin-3-yl)-1-(2-methyl-pyridin-3-yl)-1,3-dihydro-imidazo[4,5-c]quinolin-2-one], 6.4 nM; for `COc1cc(-c2ccc3ncc4c(c3c2)n(-c2cccnc2C)c(=O)n4C)cnc1C(OC)OC` [Example 2.27, 8-(6-Dimethoxymethyl-5-methoxy-pyridin-3-yl)-3-methyl-1-(2-methyl-pyridin-3-yl)-1,3-dihydro-imidazo[4,5-c]quinolin-2-one], 100 nM.
The value for `CCOc1cc(-c2ccc3ncc4c(c3c2)n(-c2cccnc2C)c(=O)n4C)cnc1COC` [Example 2.28, 8-(5-Ethoxy-6-methoxymethyl-pyridin-3-yl)-3-methyl-1-(2-methyl-pyridin-3-yl)-1,3-dihydro-imidazo[4,5-c]quinolin-2-one] was 23.7 nM; that for `Cc1ncccc1-n1c(=O)n(C)c2cnc3ccc(-c4cncc(N5CCC5)c4)cc3c21` [Example 2.29, 8-(5-Azetidin-1-yl-pyridin-3-yl)-3-methyl-1-(2-methyl-pyridin-3-yl)-1,3-dihydro-imidazo[4,5-c]quinolin-2-one] was 8.7 nM; that for `CCNc1cc(-c2ccc3ncc4c(c3c2)n(-c2cccnc2C)c(=O)n4C)cnc1CO` [Example 2.31, 8-(5-Ethylamino-6-hydroxymethyl-pyridin-3-yl)-3-methyl-1-(2-methyl-pyridin-3-yl)-1,3-dihydro-imidazo[4,5-c]quinolin-2-one] was less than 4.57 nM.
For `CNc1cc(-c2ccc3ncc4c(c3c2)n(-c2cccnc2C)c(=O)n4C)cnc1C` [Example 2.32, 3-Methyl-8-(6-methyl-5-methylamino-pyridin-3-yl)-1-(2-methyl-pyridin-3-yl)-1,3-dihydro-imidazo[4,5-c]quinolin-2-one] the value was less than 4.57 nM.
On to `CCOc1ncc(-c2ccc3ncc4c(c3c2)n(-c2ncccc2C)c(=O)n4C)cn1` [Example 3.1, 8-(2-Ethoxy-pyrimidin-5-yl)-3-methyl-1-(3-methyl-pyridin-2-yl)-1,3-dihydro-imidazo[4,5-c]quinolin-2-one], for which the IC50 came out at 632 nM.
Take `Cc1cccnc1-n1c(=O)n(C)c2cnc3ccc(-c4ccc(C(N)=O)cc4)cc3c21` [Example 3.3, 4-[3-Methyl-1-(3-methyl-pyridin-2-yl)-2-oxo-2,3-dihydro-1H-imidazo[4,5-c]quinolin-8-yl]-benzamide]: the IC50 came out at 178 nM.
The value for `CNc1ncc(-c2ccc3ncc4c(c3c2)n(-c2ncccc2C)c(=O)n4C)cn1` [Example 3.4, 3-Methyl-8-(2-methylamino-pyrimidin-5-yl)-1-(3-methyl-pyridin-2-yl)-1,3-dihydro-imidazo[4,5-c]quinolin-2-one] was 226 nM; that for `CNC(=O)c1ccc(-c2ccc3ncc4c(c3c2)n(-c2ncccc2C)c(=O)n4C)cc1` [Example 3.5, N-Methyl-4-[3-methyl-1-(3-methyl-pyridin-2-yl)-2-oxo-2,3-dihydro-1H-imidazo[4,5-c]quinolin-8-yl]-benzamide] was 92.7 nM.
Take `CCOc1ccc(-c2ccc3ncc4c(c3c2)n(-c2ncccc2C)c(=O)n4C)cn1` [Example 3.6, 8-(6-Ethoxy-pyridin-3-yl)-3-methyl-1-(3-methyl-pyridin-2-yl)-1,3-dihydro-imidazo[4,5-c]quinolin-2-one]: the IC50 is 150 nM.
The value for `Cc1cccnc1-n1c(=O)n(C)c2cnc3ccc(-c4ccc(CO)nc4)cc3c21` [Example 3.9, 8-(6-Hydroxymethyl-pyridin-3-yl)-3-methyl-1-(3-methyl-pyridin-2-yl)-1,3-dihydro-imidazo[4,5-c]quinolin-2-one] was 301 nM; that for `COc1ccc(-c2ccc3ncc4c(c3c2)n(-c2ncccc2C)c(=O)n4C)cc1OC` [Example 3.10, 8-(3,4-Dimethoxy-phenyl)-3-methyl-1-(3-methyl-pyridin-2-yl)-1,3-dihydro-imidazo[4,5-c]quinolin-2-one] was 78.3 nM.
For `Cc1cccnc1-n1c(=O)n(C)c2cnc3ccc(-c4ccc(N(C)C)nc4)cc3c21` [Example 3.11, 8-(6-Dimethylamino-pyridin-3-yl)-3-methyl-1-(3-methyl-pyridin-2-yl)-1,3-dihydro-imidazo[4,5-c]quinolin-2-one] the value was 372 nM; for `Cc1cccnc1-n1c(=O)n(C)c2cnc3ccc(-c4cnc(N)c(C(F)(F)F)c4)cc3c21` [Example 3.12, 8-(6-Amino-5-trifluoromethyl-pyridin-3-yl)-3-methyl-1-(3-methyl-pyridin-2-yl)-1,3-dihydro-imidazo[4,5-c]quinolin-2-one], 13.7 nM.
The value for `Cc1ccncc1-n1c(=O)n(C)c2cnc3ccc(-c4ccc(CO)nc4)cc3c21` [Example 4.1, 8-(6-Hydroxymethyl-pyridin-3-yl)-3-methyl-1-(4-methyl-pyridin-3-yl)-1,3-dihydro-imidazo[4,5-c]quinolin-2-one] was 542 nM; that for `CCOc1ccc(-c2ccc3ncc4c(c3c2)n(-c2cnccc2C)c(=O)n4C)cn1` [Example 4.2, 8-(6-Ethoxy-pyridin-3-yl)-3-methyl-1-(4-methyl-pyridin-3-yl)-1,3-dihydro-imidazo[4,5-c]quinolin-2-one] was 47.3 nM; that for `COc1ccc(-c2ccc3ncc4c(c3c2)n(-c2cnccc2C)c(=O)n4C)cn1` [Example 4.3, 8-(6-Methoxy-pyridin-3-yl)-3-methyl-1-(4-methyl-pyridin-3-yl)-1,3-dihydro-imidazo[4,5-c]quinolin-2-one] was 203 nM.
As for `Cn1c(=O)n(-c2cccnc2)c2c3cc(-c4ccc(CO)nc4)ccc3ncc21` [Example 5.1, 8-(6-Hydroxymethyl-pyridin-3-yl)-3-methyl-1-pyridin-3-yl-1,3-dihydro-imidazo[4,5-c]quinolin-2-one], the IC50 was determined as 167 nM.

These data come from patent publication US20100311714A1, “1H-IMIDAZO[4,5-c]QUINOLINONE COMPOUNDS” (priority 2009, published 2010).
